Source: PMC8066102, “Metabolic Profiles of New Unsymmetrical Bisacridine Antitumor Agents in Electrochemical and Enzymatic Noncellular Systems and in Tumor Cells” (Pharmaceuticals, 2021)

Key:
UGT2B7 = biological target: T1, UGT2B7 (Homo sapiens, UniProt P16662); assay: Modulation of UGT2B7 activity (epirubicin glucuronidation); format: in vitro ADME; settings: epirubicin substrate
T1 construct: purchased Corning, NY, USA (through DIAG-MED, Poland); host or cells: baculovirus-insect cells (Supersomes)
T1 sequence (P16662 24-529): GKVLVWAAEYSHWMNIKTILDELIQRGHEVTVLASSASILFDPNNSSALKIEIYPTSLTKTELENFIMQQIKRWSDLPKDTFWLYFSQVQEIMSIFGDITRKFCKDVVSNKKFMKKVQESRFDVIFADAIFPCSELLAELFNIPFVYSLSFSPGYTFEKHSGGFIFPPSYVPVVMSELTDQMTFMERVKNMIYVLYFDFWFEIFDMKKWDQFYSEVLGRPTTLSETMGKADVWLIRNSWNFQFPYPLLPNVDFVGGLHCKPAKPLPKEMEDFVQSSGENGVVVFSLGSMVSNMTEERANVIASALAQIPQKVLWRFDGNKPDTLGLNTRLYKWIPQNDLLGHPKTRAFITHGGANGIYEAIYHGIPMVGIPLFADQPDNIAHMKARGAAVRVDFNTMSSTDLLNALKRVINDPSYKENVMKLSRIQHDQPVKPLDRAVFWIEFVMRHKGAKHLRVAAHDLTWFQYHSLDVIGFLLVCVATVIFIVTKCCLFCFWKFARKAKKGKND
Description: (§1) Isoenzyme activity was studied by the rate measurement of β-hydroxylation of testosterone (specific substrate for P4503A4) and of glucuronidation of specific substrates, namely, SN-38 (UGT1A1), EPI (UGT2B7),) and TFK (UGT2B15). All substrate and drug solutions were prepared as 10 mM stock solutions in DMSO and were diluted in […] (pH 7.4). The mixture containing isoenzymes P4503A4/UGT (0.5 mg/mL), probe substrate (0.1 mM), cofactor 2 mM NADPH/5 mM UDPGA and the increasing concentrations of tested UA (0, 0.01, 0.02 and 0.05 mM) was incubated in the reaction buffer containing (i) for P4503A4 0.1 M HEPES, 88 mM MgCl2 and (ii) for UGT 0.1 M HEPES, 88 mM MgCl2, 25 μg/mL alamethicin at 37 °C for 30 min and were terminated by adding 8.75 µL of 0.1 M HCl. The samples were placed in ice for 10 min and centrifuged (10 min, 13,400 rpm). Supernatant fractions were analyzed by HPLC. For more accurate investigation of P4503A4 inhibition by C-2045 and C-2053 the β-hydroxylation rate was measured at various concentrations of testosterone: 0.02, 0.05, 0.1 and 0.2 mM. The inhibitor (UA) concentrations were 0, 0.001, 0.005 and 0.01 mM, whereas the incubation time 30 min and concentration of P4503A4 (0.5 mg/mL).

UGT2B15 = biological target: T2, UGT2B15 (Homo sapiens, UniProt P54855); assay: Modulation of UGT2B15 activity (TFK glucuronidation); format: in vitro ADME; settings: UGT2B15 isoenzyme preparation, pH 7.4, probe TFK, TFK substrate
T2 construct: purchased Corning, NY, USA (through DIAG-MED, Poland); host or cells: baculovirus-insect cells (Supersomes)
T2 sequence (P54855 24-530): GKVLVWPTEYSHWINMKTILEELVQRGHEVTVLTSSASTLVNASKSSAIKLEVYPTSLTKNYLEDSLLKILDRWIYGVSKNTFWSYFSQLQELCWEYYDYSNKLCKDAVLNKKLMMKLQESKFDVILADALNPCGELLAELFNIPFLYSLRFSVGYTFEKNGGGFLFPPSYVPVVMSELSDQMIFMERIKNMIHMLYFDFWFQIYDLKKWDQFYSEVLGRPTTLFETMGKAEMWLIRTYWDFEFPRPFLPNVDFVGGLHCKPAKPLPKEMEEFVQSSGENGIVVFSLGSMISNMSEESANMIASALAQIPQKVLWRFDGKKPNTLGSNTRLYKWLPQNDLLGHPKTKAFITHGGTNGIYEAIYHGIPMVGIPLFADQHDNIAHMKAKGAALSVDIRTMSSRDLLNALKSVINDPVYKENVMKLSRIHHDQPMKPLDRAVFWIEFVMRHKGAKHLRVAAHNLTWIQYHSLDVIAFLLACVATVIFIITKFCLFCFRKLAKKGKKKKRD
Description: as §1

UGT1A1 = biological target: T3, UGT1A1 (Homo sapiens, UniProt P22309); assay: Modulation of UGT1A1 activity (SN-38 glucuronidation); format: in vitro ADME; design: purchased Corning, NY, USA (through DIAG-MED, Poland); host or cells: baculovirus-insect cells (Supersomes); settings: SN-38 substrate
T3 sequence (P22309 26-533): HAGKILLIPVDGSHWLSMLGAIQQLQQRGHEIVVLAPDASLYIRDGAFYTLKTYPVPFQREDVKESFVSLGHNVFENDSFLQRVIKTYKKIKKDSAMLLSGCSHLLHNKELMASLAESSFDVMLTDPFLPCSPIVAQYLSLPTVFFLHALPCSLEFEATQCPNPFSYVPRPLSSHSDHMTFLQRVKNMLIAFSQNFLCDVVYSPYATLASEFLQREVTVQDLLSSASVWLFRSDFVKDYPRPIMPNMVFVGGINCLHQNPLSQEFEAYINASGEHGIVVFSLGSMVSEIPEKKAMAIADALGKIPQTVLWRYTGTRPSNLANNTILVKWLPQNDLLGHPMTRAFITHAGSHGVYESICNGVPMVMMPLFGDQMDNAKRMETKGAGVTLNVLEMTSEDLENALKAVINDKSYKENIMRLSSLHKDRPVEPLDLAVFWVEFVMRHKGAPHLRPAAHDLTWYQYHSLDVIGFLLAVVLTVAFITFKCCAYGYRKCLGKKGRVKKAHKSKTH
Description: as §1

HCT-116 cells = assay: Drug metabolism in HCT-116 colon tumor cells; format: cell-based, human; settings: HCT-116 (low UGT expression), 50 μM, medium and cell extract, up to 24 h
Description: (§2) To analyze the transformation products of UAs in colon tumor cell lines, HCT-116 or HT-29 cells were plated in 60 mm Petri dishes; after reaching 80% of confluence, cells were treated with 5/25/50 μM of C-2028, C-2045 or C-2053 (prepared as 10 or 2 mM stock solutions in water) for specified time. Half of medium was added to acetonitrile (1:1, v/v), centrifuged (12 min, 13,400 rpm, 4 °C) and the supernatant was analyzed by HPLC (post-culture medium). Cells remaining on the Petri dishes were collected by gentle scraping, sedimented, washed with ice-cold PBS, suspended in ice-cold chloroform and lysed by sonication for 15 min. After 1 h on ice, insoluble material was removed by centrifugation at 13,000 rpm for 20 min at 4 °C. The sediment was discarded and supernatant (chloroform) were evaporated under pressure. Then, sample was suspended in ice-cold 60% methanol and directly analyzed by HPLC (cell extract).

HCT-116-UGT1A10 cells = assay: Drug metabolism in HCT-116 cells transfected with UGT1A10; format: cell-based, human; settings: HCT-116 overexpressing UGT1A10, 50 μM, medium and cell extract, 24 and 72 h
Description: as §2

Row | decrease in the activity of UGT2B7 (UGT2B7; 0.01 mM and 0.02 mM compound) | inhibition at 30 min, 0.05 mM (UGT2B7; human, UGT2B7 isoenzyme preparation, pH 7.4, probe epirubicin (EPI), 0.05 mM compound) | inhibition at 30 min, 0.05 mM (UGT2B15; highest concentration) | inhibition at 30 min (UGT2B15; lowest concentrations) | activity decrease of UGT1A1 (UGT1A1; low concentrations of compound) | inhibition at 30 min (UGT1A1; human, UGT1A1 isoenzyme preparation, pH 7.4, probe SN-38, higher concentrations of compound, read-out: inhibition rate of UGT1A1) | metabolite formation in cells (HCT-116 cells) | Compound | metabolite formation in cells (HCT-116-UGT1A10 cells)
1 | 60% | 90% | 80% | ~30% | 77% | 65 to 70% | – | CN(CCCNc1c2ccccc2nc2cccc([N+](=O)[O-])c12)CCCNc1ccc2ncn3c4ccccc4c(=O)c1c23 [C-2028] | –
2 | – | – | – | – | – | – | No metabolite products were observed | Cc1ccc([N+](=O)[O-])c2c(NCCCN(C)CCCNc3ccc4ncn5c6ccc(O)cc6c(=O)c3c45)c3ccccc3nc12 [C-2045] | metabolized the substrate to the derivative, which was found in the cell medium rather than in the cell extract
